Laboratory results: ChEMBL document CHEMBL4616698, “Scaffold Repurposing of in-House Chemical Library toward the Identification of New Casein Kinase 1 δ Inhibitors” (ACS Med Chem Lett, 2020)
pIC50: −log10 of the molar value.

What was measured:
[1] = target: Casein kinase I isoform delta (Homo sapiens, UniProt P48730); assay: Inhibition of full length recombinant human GST-tagged CSNK1D expressed in baculovirus expression system using casein as substrate incubated for 10 mins in presence of ATP by KinaseGlo luminescence assay
Sequence of Casein kinase I isoform delta (P48730 whole entry, canonical isoform): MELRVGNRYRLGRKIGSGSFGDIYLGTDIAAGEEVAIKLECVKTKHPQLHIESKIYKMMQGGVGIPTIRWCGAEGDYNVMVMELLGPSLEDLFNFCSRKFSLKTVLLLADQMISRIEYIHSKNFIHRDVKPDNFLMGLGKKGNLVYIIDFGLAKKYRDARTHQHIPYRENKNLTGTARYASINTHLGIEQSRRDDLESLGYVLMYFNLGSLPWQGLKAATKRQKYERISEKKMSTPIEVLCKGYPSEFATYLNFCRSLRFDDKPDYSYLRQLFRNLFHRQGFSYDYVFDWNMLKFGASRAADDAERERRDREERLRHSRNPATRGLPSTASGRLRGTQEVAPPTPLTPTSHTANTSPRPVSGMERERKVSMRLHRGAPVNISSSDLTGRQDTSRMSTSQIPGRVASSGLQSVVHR

[2] = target: Casein kinase 1, delta tv1 (Sus scrofa, UniProt M3VH47); assay: Inhibition of porcine brain CK-1delta using RRKHAAIGpSAYSITA peptide as substrate incubated for 30 mins in presence of [gamma-33P]-ATP by scintillation counting method
Sequence of Casein kinase 1, delta tv1 (M3VH47 whole entry): as the sequence (P48730 whole entry, canonical isoform) above, with V340A, P401A, S406A, V412A counted along it

Structure (SMILES): Oc1cc(-c2cccc(Br)c2)nc2ccc3[nH]ccc3c12
- pIC50 [1]: 4.89

Structure (SMILES): CCn1ccc2c3c(=O)cc(-c4cccc5ccccc45)[nH]c3ccc21
- pIC50 [1]: 4.82

Structure (SMILES): Nc1nccc(-c2c(-c3ccc(F)cc3)ncn2C2CCCCC2)n1
- pIC50 [2]: 8.11
